The values below come from patent publication US20250152593A1, “p38 MAPK INHIBITORS AND USES THEREOF” (CITY OF HOPE, priority 2023, published 2025).

pIC50: −log10 of the molar value.

One experiment deals with p38 MAPK alpha (Homo sapiens, UniProt Q16539). The experiment in a line: in vitro kinase assay, p38 MAPK alpha catalytic activity. It is filed as biochemical. How it is done: (§1) FIGS. 6A-6C. In vitro kinase assays for p38a (FIG. 6A), p38β(FIG. 6B), and […] (FIG. 6C) at 100 nM.
(§2) Quinazoline derivatives were initially tested with various cancer types of cell lines using a cell-based assay.

A further experiment concerns hematopoietic cell lines. The experiment in a line: antitumor activity against hematopoietic cell lines. It is filed as cell-based.
Description: as §2

For a further experiment, the target named is p38 MAPK beta (Homo sapiens, UniProt Q15759). The experiment in a line: in vitro kinase assay, p38 MAPK beta catalytic activity. It is filed as biochemical. How it is done: as §1, §2
Chain of p38 MAPK beta (Q15759 whole entry): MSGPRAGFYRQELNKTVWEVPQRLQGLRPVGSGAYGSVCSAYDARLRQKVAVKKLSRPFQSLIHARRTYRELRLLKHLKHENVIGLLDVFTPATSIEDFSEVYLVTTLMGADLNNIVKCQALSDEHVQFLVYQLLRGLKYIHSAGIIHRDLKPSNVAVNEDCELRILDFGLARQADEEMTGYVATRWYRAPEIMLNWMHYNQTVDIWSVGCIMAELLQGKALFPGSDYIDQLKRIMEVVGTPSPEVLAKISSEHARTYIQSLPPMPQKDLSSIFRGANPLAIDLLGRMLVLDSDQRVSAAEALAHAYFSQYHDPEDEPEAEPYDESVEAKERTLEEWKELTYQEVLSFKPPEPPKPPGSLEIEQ
The next experiment concerns K562 CML cells. The experiment in a line: cell-based assay, K562 CML cells. As to conditions: Homo sapiens, read-out: IC50 against K562 CML cells.
Description: as §2

The test system of another experiment is Hut78 cells. The experiment can be described thus: combination study of HDAC inhibitors and CEM451 with Hut78 cells. It is filed as cell-based. The following applies: for Effect of CEM451 / Effect of SAHA / Effect of Romidepsin: Hut78.
The subject of experiment [1] is RPMI8226 multiple myeloma cells. The experiment can be described thus: combination of SAHA and CEM451 with RPMI8226 multiple myeloma cells. The format is cell-based. As to conditions: for Effect of CEM451 / Effect of SAHA: RPMI8226.

Chain of p38 MAPK alpha (Q16539 whole entry): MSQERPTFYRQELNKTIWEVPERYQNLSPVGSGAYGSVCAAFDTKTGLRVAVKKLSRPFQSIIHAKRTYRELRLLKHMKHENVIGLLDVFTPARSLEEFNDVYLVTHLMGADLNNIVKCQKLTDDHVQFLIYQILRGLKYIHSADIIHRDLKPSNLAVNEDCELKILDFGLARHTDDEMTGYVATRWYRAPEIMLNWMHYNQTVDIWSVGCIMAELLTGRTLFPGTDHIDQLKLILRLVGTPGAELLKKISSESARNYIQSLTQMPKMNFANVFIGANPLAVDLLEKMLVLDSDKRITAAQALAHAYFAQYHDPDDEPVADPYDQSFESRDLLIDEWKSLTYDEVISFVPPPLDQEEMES

As usually defined, the pIC50 is the IC50 on a negative log10 scale, so that one unit is a factor of ten. Turning to `Cc1ccc(NC(=O)c2cccc(C(F)(F)F)c2)cc1Nc1ncnc2nc(NC3CC3)ncc12` [CEM451, N-(3-((7-(cyclopropylamino)pyrimido[4,5-d]pyrimidin-4-yl)amino)-4-methylphenyl)-3-(trifluoromethyl)benzamide], the negative-log IC50 (pIC50) against p38 MAPK alpha was 8.21; against p38 MAPK beta it was 7.89; in the experiment on K562 CML cells it was 6.27. Further, the “antitumor activities against hematopoietic cell lines” value with hematopoietic cell lines is given as “broadly showed antitumor activities”. For the same compound, the “Effect of CEM451” value came to 0.57 in the experiment with Hut78 cells (Romidepsin combination study, CEM451 5 μM); 0.72 with Hut78 cells (Romidepsin combination study, CEM451 10 μM); 0.83 with Hut78 cells (Romidepsin combination study, CEM451 15 μM); 0.48 in the experiment with Hut78 cells (high doses study with SAHA, CEM451 5 μM); 0.65 in the experiment with Hut78 cells (high doses study with SAHA, CEM451 10 μM); 0.81 in the experiment with Hut78 cells (high doses study with SAHA, CEM451 15 μM). For the same compound, the “Effect of CEM451” value with Hut78 cells (low doses study, CEM451 0.5 μM) is reported as 0.24; with Hut78 cells (low doses study, CEM451 1 μM), 0.26; with Hut78 cells (low doses study, CEM451 3 μM), 0.45; in experiment [1] (CEM451 5 μM), 0.47; in experiment [1] (CEM451 10 μM), 0.71; in experiment [1] (CEM451 15 μM), 0.81. Further, the “effect in combination with SAHA” value (with Hut78 cells (Hut78 CTCL cells); in experiment [1] (RPMI8226 MM cells)) was “synergistic effects” throughout.
Turning to `O=C(CCCCCCC(=O)Nc1ccccc1)NO` [SAHA, reference compound], the “Effect of SAHA” value was 0.16 in the experiment on Hut78 cells (high doses study, SAHA 0.6 μM); 0.27 in the experiment on Hut78 cells (high doses study, SAHA 0.9 μM); 0.74 with Hut78 cells (high doses study, SAHA 1.2 μM); 0.3 in the experiment with Hut78 cells (low doses study, SAHA 0.6 μM); 0.59 in the experiment with Hut78 cells (low doses study, SAHA 0.9 μM); 0.84 in the experiment on Hut78 cells (low doses study, SAHA 1.2 μM). Moreover, the “Effect of SAHA” value in experiment [1] (SAHA 0.6 μM) was 0.63; in experiment [1] (SAHA 0.9 μM) it was 0.8; in experiment [1] (SAHA 1.2 μM), 0.91.
Regarding `C/C=C1\NC(=O)[C@H]2CSSCC/C=C/[C@H](CC(=O)N[C@H](C(C)C)C(=O)N2)OC(=O)[C@H](C(C)C)NC1=O` [Romidepsin, reference compound], the figures for the “Effect of Romidepsin” value in the experiment with Hut78 cells (Romidepsin 0.001 μM), in the experiment with Hut78 cells (Romidepsin 0.0015 μM) and in the experiment on Hut78 cells (Romidepsin 0.002 μM) were 0.1, 0.58 and 0.92, respectively.
